PubChem BioAssay AID2060498 (Molecular Pharmacology Branch, DTP, NCI, 2025)

Tested on: 171881-019-R-J1-PDC tumor spheroids, viability
Assay: Anticancer human tumor 171881-019-R-J1-PDC patient-derived invasive breast carcinoma cell line growth inhibition [GQUAD]
Settings: spheroids with HUVEC and MSC; for IC50: curve of first compound; for viability, T/C: stronger effect = lower value
Summary of the method: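 Tumor cells were grown as complex spheroids with HUVEC endothelial cells and mesenchymal stem cells as stroma. G-quadruplex stabilizers were combined with targeted agents over half-log dilutions from near the clinical Cmax, or from 10 microM.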

[1] = second compound 0.0316 µM, first compound 0.0316 µM
[2] = second compound 0.0316 µM, first compound 0.1 µM
[3] = second compound 0.0316 µM, first compound 0.316 µM
[4] = second compound 0.0316 µM, first compound 1 µM
[5] = second compound 0.0316 µM, first compound 3.16 µM
[6] = second compound 0.0316 µM, first compound 10 µM
[7] = second compound 0.1 µM, first compound 0.0316 µM
[8] = second compound 0.1 µM, first compound 0.1 µM
[9] = second compound 0.1 µM, first compound 0.316 µM
[10] = second compound 0.1 µM, first compound 1 µM
[11] = second compound 0.1 µM, first compound 3.16 µM
[12] = second compound 0.1 µM, first compound 10 µM
[13] = second compound 0.316 µM, first compound 0.0316 µM
[14] = second compound 0.316 µM, first compound 0.1 µM
[15] = second compound 0.316 µM, first compound 0.316 µM
[16] = second compound 0.316 µM, first compound 1 µM
[17] = second compound 0.316 µM, first compound 3.16 µM
[18] = second compound 0.316 µM, first compound 10 µM
[19] = second compound 1 µM, first compound 0.0316 µM
[20] = second compound 1 µM, first compound 0.1 µM
[21] = second compound 1 µM, first compound 0.316 µM
[22] = second compound 1 µM, first compound 1 µM
[23] = second compound 1 µM, first compound 3.16 µM
[24] = second compound 1 µM, first compound 10 µM
[25] = second compound 3.16 µM, first compound 0.0316 µM
[26] = second compound 3.16 µM, first compound 0.1 µM
[27] = second compound 3.16 µM, first compound 0.316 µM
[28] = second compound 3.16 µM, first compound 1 µM
[29] = second compound 3.16 µM, first compound 3.16 µM
[30] = second compound 3.16 µM, first compound 10 µM
[31] = second compound 10 µM, first compound 0.0316 µM
[32] = second compound 10 µM, first compound 0.1 µM
[33] = second compound 10 µM, first compound 0.316 µM
[34] = second compound 10 µM, first compound 1 µM
[35] = second compound 10 µM, first compound 3.16 µM
[36] = second compound 10 µM, first compound 10 µM
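Also: spheroids exposed to compounds for 7 days.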
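For viability, T/C in this document: 100% = DMSO vehicle control viability.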

In the case of `CC(C)n1c(=O)n(C)c2cnc3cc(F)c(-c4ccc(OCCCN5CCCCC5)nc4)cc3c21` + Cc1[nH]c2ccc(F)cc2c1-c1nc2c3cccnc3c3ncccc3c2[nH]1, the IC50 (second compound 0.0316 µM) is reported as 3.36 µM, the IC50 (second compound 0.1 µM) is reported as 3.35 µM and the IC50 (second compound 0.316 µM) is reported as 2.42 µM. The IC50 (second compound 1 µM) was 2.31 µM, the IC50 (second compound 3.16 µM) was < 0.0316 µM and the IC50 (second compound 10 µM) was 0.362 µM. For the same compound, the viability, T/C [1] was 103%, the viability, T/C [2] was 94.3% and the viability, T/C [3] was 95.4%. For the same compound, the viability, T/C [4] was 84.7%, the viability, T/C [5] was 51.1% and the viability, T/C [6] was 22.8%. For the same compound, the viability, T/C [7] was 97.3%, the viability, T/C [8] was 104% and the viability, T/C [9] was 93.4%. It also gave a viability, T/C [10] of 79.8%, a viability, T/C [11] of 51.7% and a viability, T/C [12] of 23.8%. The viability, T/C [13] was 95.9%, the viability, T/C [14] was 93.2% and the viability, T/C [15] was 64.5%. It also gave a viability, T/C [16] of 67.8%, a viability, T/C [17] of 50% and a viability, T/C [18] of 21.9%. It also gave a viability, T/C [19] of 89.7%, a viability, T/C [20] of 75.5% and a viability, T/C [21] of 84.8%. It also gave a viability, T/C [22] of 68%, a viability, T/C [23] of 43.2% and a viability, T/C [24] of 26.9%. The viability, T/C [25] was 28.7%, the viability, T/C [26] was 29.2% and the viability, T/C [27] was 23.4%. The viability, T/C [28] was 23.3%, the viability, T/C [29] was 19.1% and the viability, T/C [30] was 12%. For the same compound, the viability, T/C [31] was 65.7%, the viability, T/C [32] was 49.8% and the viability, T/C [33] was 52.4%. It also gave a viability, T/C [34] of 43.4%, a viability, T/C [35] of 34.3% and a viability, T/C [36] of 16.5%.

With `CC[C@@]1(O)C(=O)OCc2c1cc1n(c2=O)Cc2cc3c(CN(C)C)c(O)ccc3nc2-1` + Cc1[nH]c2ccc(F)cc2c1-c1nc2c3cccnc3c3ncccc3c2[nH]1 the IC50 (second compound 0.0316 µM) was 0.0961 µM, the IC50 (second compound 0.1 µM) was 0.122 µM and the IC50 (second compound 0.316 µM) was 0.142 µM. The IC50 (second compound 1 µM) was 0.119 µM, the IC50 (second compound 3.16 µM) was < 0.000999 µM and the IC50 (second compound 10 µM) was < 0.000999 µM. The viability, T/C (second compound 0.0316 µM, first compound 0.000999 µM) was 97%, the viability, T/C (second compound 0.0316 µM, first compound 0.00316 µM) was 86.9% and the viability, T/C (second compound 0.0316 µM, first compound 0.00999 µM) was 97.9%. For the same compound, the viability, T/C [1] was 87.1%, the viability, T/C (second compound 0.0316 µM, first compound 0.0999 µM) was 48.8% and the viability, T/C [3] was 37.8%. For the same compound, the viability, T/C (second compound 0.1 µM, first compound 0.000999 µM) was 108%, the viability, T/C (second compound 0.1 µM, first compound 0.00316 µM) was 99.1% and the viability, T/C (second compound 0.1 µM, first compound 0.00999 µM) was 93.1%. The viability, T/C [7] was 87.1%, the viability, T/C (second compound 0.1 µM, first compound 0.0999 µM) was 50.8% and the viability, T/C [9] was 39.7%. For the same compound, the viability, T/C (second compound 0.316 µM, first compound 0.000999 µM) was 101%, the viability, T/C (second compound 0.316 µM, first compound 0.00316 µM) was 104% and the viability, T/C (second compound 0.316 µM, first compound 0.00999 µM) was 90.5%. For the same compound, the viability, T/C [13] was 82.8%, the viability, T/C (second compound 0.316 µM, first compound 0.0999 µM) was 53.9% and the viability, T/C [15] was 38.1%. For the same compound, the viability, T/C (second compound 1 µM, first compound 0.000999 µM) was 87.6%, the viability, T/C (second compound 1 µM, first compound 0.00316 µM) was 68% and the viability, T/C (second compound 1 µM, first compound 0.00999 µM) was 86%. The viability, T/C [19] was 70.3%, the viability, T/C (second compound 1 µM, first compound 0.0999 µM) was 52.8% and the viability, T/C [21] was 37.7%. The viability, T/C (second compound 3.16 µM, first compound 0.000999 µM) was 21.7%, the viability, T/C (second compound 3.16 µM, first compound 0.00316 µM) was 17.7% and the viability, T/C (second compound 3.16 µM, first compound 0.00999 µM) was 22.7%. It also gave a viability, T/C [25] of 24.3%, a viability, T/C (second compound 3.16 µM, first compound 0.0999 µM) of 22.9% and a viability, T/C [27] of 16.7%. It also gave a viability, T/C (second compound 10 µM, first compound 0.000999 µM) of 46.2%, a viability, T/C (second compound 10 µM, first compound 0.00316 µM) of 41.7% and a viability, T/C (second compound 10 µM, first compound 0.00999 µM) of 45.2%. It also gave a viability, T/C [31] of 38.4%, a viability, T/C (second compound 10 µM, first compound 0.0999 µM) of 37.6% and a viability, T/C [33] of 20.7%.

`CC(C)(O)C1CCC(Nc2ccc3ncc(-c4cccc(C(F)(F)F)c4)n3n2)CC1` (stereo unspecified) + Cc1cnc(CNC(=O)c2c(=O)c3ccc(N4CCCN(C)CC4)nc3n3c2sc2ccccc23)cn1 showed an IC50 (second compound 0.0316 µM) of 1.62 µM, an IC50 (second compound 0.1 µM) of 1.71 µM and an IC50 (second compound 0.316 µM) of 1.47 µM. The IC50 (second compound 1 µM) was 1.19 µM, the IC50 (second compound 3.16 µM) was 1.07 µM and the IC50 (second compound 10 µM) was 0.927 µM. For the same compound, the viability, T/C [1] was 95.8%, the viability, T/C [2] was 87.5% and the viability, T/C [3] was 89.5%. For the same compound, the viability, T/C [4] was 69.7%, the viability, T/C [5] was 18.2% and the viability, T/C [6] was 26.9%. The viability, T/C [7] was 88.7%, the viability, T/C [8] was 83.8% and the viability, T/C [9] was 70.9%. It also gave a viability, T/C [10] of 73.4%, a viability, T/C [11] of 19% and a viability, T/C [12] of 27.2%. The viability, T/C [13] was 76.5%, the viability, T/C [14] was 76.7% and the viability, T/C [15] was 72%. It also gave a viability, T/C [16] of 63.1%, a viability, T/C [17] of 21.9% and a viability, T/C [18] of 25.7%. The viability, T/C [19] was 71.9%, the viability, T/C [20] was 65.2% and the viability, T/C [21] was 72.9%. The viability, T/C [22] was 56.3%, the viability, T/C [23] was 13.6% and the viability, T/C [24] was 18%. The viability, T/C [25] was 65.4%, the viability, T/C [26] was 60% and the viability, T/C [27] was 63.1%. It also gave a viability, T/C [28] of 53.1%, a viability, T/C [29] of 0.32% and a viability, T/C [30] of 0.82%. For the same compound, the viability, T/C [31] was 59.3%, the viability, T/C [32] was 62.5% and the viability, T/C [33] was 58.1%. It also gave a viability, T/C [34] of 49.3%, a viability, T/C [35] of 0.4% and a viability, T/C [36] of 0.62%.
